Data published in PMC12389018, “Eugenia uniflora L.: Analysis of Chemical Profile and Cytotoxic Action on Tumor (HeLa) and Non-Tumor Cells (NIH/3T3)” (Pharmaceuticals, 2025).
≈ marks a conversion by molar mass, not a printed value.

Experiments:
[1] = test system: HeLa cells vs NIH/3T3 cells; assay: Selectivity index (IC50 NIH/3T3 divided by IC50 HeLa); assay type: cell-based; settings: IC50 NIH/3T3 / IC50 HeLa; SI ≥ 2 considered selective
Method: The selectivity index (SI) was calculated by dividing the IC50 value of NIH/3T3 cells by the IC50 of HeLa cells. Samples with SI ≥ 2 were considered selectively cytotoxic to cancer cells.

[2] = test system: NIH/3T3 (murine fibroblast) cells; assay: MTT cell viability assay in NIH/3T3 cells; assay type: cell-based
Method: (§1) The HeLa (cervical cancer) and NIH/3T3 (murine fibroblast) cells were seeded in 96-well plates at a density of 3 × 10^4 cells/well in DMEM (Dulbecco’s Modified Eagle Medium; Gibco, Thermo Fisher, Paisley, UK), supplemented with 10% fetal bovine serum (FBS; Cultilab®, São Paulo, Brazil) and 1% penicillin/streptomycin (Pen/Strep—Cultilab®, Campinas, Brazil). The cells were incubated at 37 °C in a humidified atmosphere containing 5% CO2 for 24 h. After incubation, the cells were treated with EUD and EUA extracts at concentrations ranging from 3.5 µg/mL to 250 µg/mL and incubated for an additional 48 h. The cell lines were kindly donated by Cemib (Multidisciplinary Center for Biological Research in the Laboratory Animal Science Area, Campinas, Brazil)—Unicamp/SP.
(§2) One row of wells was treated only with the vehicle (culture medium) to serve as the negative control, representing 100% cell viability. Doxorubicin (Libbs®, São Paulo, Brazil) and carboplatin (Blau Farmacêutica®, São Paulo, Brazil) were used as the positive controls.
Following treatment, the medium was removed, and 100 µL/well of MTT reagent (5 mg/mL; 3-[4,5-dimethylthiazol-2-yl]-2,5-diphenyltetrazolium bromide; Invitrogen, Thermo Fisher, Waltham, MA, USA) was added. […] Absorbance was measured at 570 nm using an Epoch-Biotek ELISA microplate spectrophotometer (BioTek Instruments, Winooski, VT, USA). […]

[3] = test system: HeLa (cervical cancer) cells; assay: MTT cell viability assay in HeLa cells; assay type: cell-based, human
Method: as §1, §2
Following treatment, the medium was removed, and 100 µL/well of MTT reagent (5 mg/mL; 3-[4,5-dimethylthiazol-2-yl]-2,5-diphenyltetrazolium bromide; Invitrogen, Thermo Fisher, Waltham, MA, USA) was added. The plates were incubated for 4 h at 37 °C. After incubation, the resulting formazan crystals formed in viable cells were solubilized by adding 100 µL/well of DMSO (dimethyl sulfoxide; Labsynth, São Paulo, Brazil). Absorbance was measured at 570 nm using an Epoch-Biotek ELISA microplate spectrophotometer (BioTek Instruments, Winooski, VT, USA).
Statistical analysis was performed using GraphPad Prism 8.4.6 (GraphPad Software, Inc., Boston, MA, USA) via one-way ANOVA followed by Tukey’s post hoc test. Differences were considered statistically significant at p < 0.05. All the experiments were conducted in triplicate.

HeLa cells [4] = assay: Cell cycle analysis by flow cytometry with PI staining; assay type: cell-based, human; settings: treated at IC50, 48 h
Method: The HeLa cells (2 × 10^5 cells/well) were seeded in 6-well plates and incubated for 24 h. The cells were then treated with the EUD and EUA extracts and doxorubicin at their respective IC50 concentrations. The vehicle-treated cells served as the negative control. After 48 h, cells were harvested with trypsin, centrifuged, fixed in 70% ethanol, and stained with propidium iodide (PI) (Sigma-Aldrich®). The samples were incubated at 37 °C for 30 min in the dark and analyzed using a BD Accuri™ C6 Plus flow cytometer. Histograms were processed with the Cell Quest Pro software (version 5.1). Data was analyzed using two-way ANOVA in GraphPad Prism 8.4.3, with significance at p < 0.05.

HeLa cells [5] = assay: Cell migration assay (scratch assay); assay type: cell-based, human; settings: EUD 7.5 μg/mL, EUA 10 μg/mL, doxorubicin 0.375 μg/mL
Method: The HeLa cells (70,000–80,000 cells/well) were seeded in 24-well plates with DMEM supplemented with 10% FBS and 1% Pen/Strep and incubated at 37 °C with 5% CO2 until 80% confluence. The medium was replaced with DMEM containing 0.2% FBS, and after 24 h, a scratch was made in the cell monolayer using a 1000 µL pipette tip. The cells were washed with sterile PBS, and they were treated with doxorubicin (positive control) and EUD and EUA extracts at ¼ of their IC50 values: 7.5 µg/mL (EUD), 10 µg/mL (EUA), and 0.375 µg/mL (doxorubicin).
Images were captured at 0 h (T0), 12 h (T1), 18 h (T2), and 24 h (T3) using an EVOS XL Core Imaging System microscope (10× objective). Scratch area percentages were analyzed using the ImageJ software 1.54g/Java 1.8.0_421 (32-bit), and statistical analysis was performed using one-way ANOVA with GraphPad Prism 8.4.3. All the experiments were conducted in triplicate.

[6] = test system: breast cancer cells MDA-MB-231; set-up: method as in doi:10.3390/scipharm91030042; settings: cited from earlier work
[7] = test system: breast cancer cells MDA-MB-468; set-up: method as in doi:10.3390/scipharm91030042; settings: cited from earlier work
[8] = test system: non-small-cell lung cancer cells NCI-H358; set-up: method as in doi:10.3390/scipharm91030042; settings: cited from earlier work
[9] = test system: SiHa cells, a cervical squamous cell carcinoma line; set-up: method as in PMID 37935292; settings: cited from earlier work
[10] = test system: non-small-cell lung cancer cells A549; set-up: method as in doi:10.3390/scipharm91030042; settings: cited from earlier work
[11] = test system: liver (Hep-G2) cancer cells; settings: in vitro; cited from earlier work
[12] = test system: human cervical (HeLa) cancer cells; settings: in vitro; cited from earlier work

N.N.O=C([O-])C1(C(=O)[O-])CCC1.[Pt+2] [Carboplatin]
Selectivity Index (SI) [1]: 0.73
IC50 Non-Tumor cells NIH/3T3 ([2]; 48 h treatment): 38.32 µg/mL
IC50 Tumor Cells HeLa ([3]; 48 h treatment): 52.40 µg/mL
concentrations with statistically significant reduction of HeLa cell viability vs negative control ([3]; p < 0.05): > 25 µg/mL

COc1cccc2c1C(=O)c1c(O)c3c(c(O)c1C2=O)C[C@@](O)(C(=O)CO)C[C@@H]3O[C@H]1C[C@H](N)[C@H](O)[C@H](C)O1 [Doxorubicin]
Selectivity Index (SI) [1]: 1.5
IC50 ([2]; Mus musculus, NIH3T3, 48 h treatment, read-out: IC50 Non-Tumor cells NIH/3T3): 2.32 µg/mL (≈ 4.27 µM)
cells in SubG0 phase (HeLa cells [4]; negative control 2.97%): 44.20%
cells in G2/M phase (HeLa cells [4]; negative control 7.97%): 0.245%
cells in S phase (HeLa cells [4]; negative control 30.55%): 12.1%
cells in G1/G0 phase (HeLa cells [4]; negative control 56.75%): 42.75%
IC50 ([3]; Homo sapiens, HeLa, 48 h treatment, read-out: IC50 Tumor Cells HeLa): 1.59 µg/mL (≈ 2.93 µM)
free area (scratch) at T1 (HeLa cells [5]; 12 h): 39.51%
free area (scratch) at T2 (HeLa cells [5]; 18 h): 36.49%
free area (scratch) at T3 (HeLa cells [5]; 24 h): 32.17%
inhibition of cell migration compared to the negative control (HeLa cells [5]): did not significantly inhibit tumor cell migration

O=c1oc2c(O)c(O)cc3c(=O)oc4c(O)c(O)cc1c4c23 [ellagic acid, Ellagic acid]
effect on proliferation of MDA-MB-231 cells [6]: inhibited the proliferation
effect on proliferation of MDA-MB-468 cells [7]: inhibited the proliferation
effect on proliferation of NCI-H358 cells [8]: inhibited the proliferation
effect on proliferation of SiHa cells [9]: inhibit cell proliferation
effect on proliferation of A549 cells [10]: inhibited the proliferation

myricitrin
cytotoxicity against Hep-G2 cancer cells [11]: considerable cytotoxicity
cytotoxicity against HeLa cancer cells [12]: considerable cytotoxicity

unifloratrin
cytotoxicity against Hep-G2 cancer cells [11]: considerable cytotoxicity
cytotoxicity against HeLa cancer cells [12]: considerable cytotoxicity
